The source of these data is ChEMBL document CHEMBL3639094, “Organic compounds” (2014).

In this assay the target is T1, Cholesteryl ester transfer protein (Homo sapiens, UniProt P11597).
T1 sequence (P11597 whole entry): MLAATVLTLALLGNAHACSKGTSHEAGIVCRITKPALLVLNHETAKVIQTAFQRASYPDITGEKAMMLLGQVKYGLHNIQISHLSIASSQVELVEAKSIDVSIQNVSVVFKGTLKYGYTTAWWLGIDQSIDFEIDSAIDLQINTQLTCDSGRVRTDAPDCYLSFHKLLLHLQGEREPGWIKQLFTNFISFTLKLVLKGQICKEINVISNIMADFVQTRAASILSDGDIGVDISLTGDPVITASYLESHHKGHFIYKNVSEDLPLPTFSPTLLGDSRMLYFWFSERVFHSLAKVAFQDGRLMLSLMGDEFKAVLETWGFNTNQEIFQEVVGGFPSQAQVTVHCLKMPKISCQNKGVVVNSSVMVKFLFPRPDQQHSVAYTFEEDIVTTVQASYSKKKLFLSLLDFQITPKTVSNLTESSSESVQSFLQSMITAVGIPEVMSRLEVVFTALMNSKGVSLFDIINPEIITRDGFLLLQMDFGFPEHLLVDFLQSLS
The experiment in a line: In Vitro Assay: CETP Activity Kit (#RB-RPAK) was purchased from Roar Biochemical, Inc. (New York, N.Y., USA). To each well of a 96-well NBS half-area plate (costar #3686), 1.2 ng/well of the donor solution, 1 uL of the acceptor solution and 5 uL compound solution diluted in 100% DMSO were added in a 38 uL of buffer containing 10 mM Tris, 150 mM NaCl and 2 mM EDTA, pH 7.4. Then, the plate was sealed with Themowell Sealers (costar #6524) and followed by a mixing on a plate shaker by MICROPLATE MIXER MPX-96 (IWAKI) at power 3 for 10 sec at room temperature. After 10-min incubation at 37C., the reaction was started by adding 5 uL of rhCETP solution (Cardiovascular Target, New York, N.Y., USA) and mixed on the plate shaker for 10 sec, then the fluorescence intensity at 0 min was measured by a ARVO SX (Perkin Elmerr, USA) at excitation wavelength of 465 nm and emission wavelength of 535 nm. After 120 min-incubation at 37C., fluorescence intensity was measured again.
Compound `CC[C@@H]1C[C@H](N(Cc2cc(C(F)(F)F)cc(C(F)(F)F)c2)c2ncc(N3CCOCC3)cn2)CN1c1nc(N2CCC(C(=O)O)CC2)ncc1Cl` yielded an IC50 of 0.13 µM. As to `CC[C@@H]1C[C@H](N(Cc2cc(C(F)(F)F)cc(C(F)(F)F)c2)c2ncc(-c3cnn(C)c3)cn2)CN1C(=O)OCC1(C)COC1`, the IC50 stood at 0.053 µM.

As to `CC[C@@H]1C[C@H](N(Cc2cc(C(F)(F)F)cc(C(F)(F)F)c2)c2ncc(-c3cnn(C)c3)cn2)CN1c1nc(N2CCC(C(=O)O)CC2)ncc1Cl`, half-maximal inhibition (IC50) was put at 0.077 µM.

In turn, `CC[C@@H]1C[C@H](N(Cc2cc(C(F)(F)F)cc(C(F)(F)F)c2)c2ncc(-c3cnn(C)c3)cn2)CN1C(=O)OC(C)C` displayed an IC50 of 0.023 µM.

Broadly, the IC50 is the concentration at which inhibition is half-maximal.
